Experiments:
[1] = system: monocytes/macrophages (CD64); conditions: Tsk/+ mice, IRF5D 1 mg/kg/d subcutaneously, 21 d; Tsk/+ vs. Tsk/+ + IRF5D p<0.025; mean ± SD, n=3, 10 images per antibody; ref [21]; cited from earlier work
[2] = system: extracellular matrix; test: alterations in extracellular matrix of tight-skin mouse; type: in vivo, Tsk/+ mice; conditions: tight-skin mouse (Tsk/+); abstract statement, no data shown
[3] = system: neutrophils (NIMP); conditions: Tsk/+ mice, IRF5D 1 mg/kg/d subcutaneously, 21 d; Tsk/+ vs. Tsk/+ + IRF5D p<0.025; mean ± SD, n=3, 10 images per antibody; ref [21]; cited from earlier work

Substance: Ac-ELDWDADDIRLQIDNPD-NH2 [IRF5D]
- number of monocytes/macrophages (CD64) in the heart [1]: decreased
- alterations in extracellular matrix [2]: reduced alterations in extracellular matrix
- number of neutrophils (NIMP) in the heart [3]: decreased

— paper PMC5408651 (Journal of visualized experiments : JoVE, 2017)
